Assay results from BindingDB's records for doi:10.7270/Q2ZC817P (The Scripps Research Institute Molecular Screening Center, 2007).
Where a name gives a salt, the structure may show the parent alone.

Biological target: Sphingosine 1-phosphate receptor 1 (Homo sapiens, UniProt P21453)
Assay: S1P1 agonism potentiation – cell-based, potentiator mode, 60K MLSMR set, dose response (AID 466)
Settings: not given

Sphingosine 1-phosphate receptor 1, sequence (P21453 whole entry): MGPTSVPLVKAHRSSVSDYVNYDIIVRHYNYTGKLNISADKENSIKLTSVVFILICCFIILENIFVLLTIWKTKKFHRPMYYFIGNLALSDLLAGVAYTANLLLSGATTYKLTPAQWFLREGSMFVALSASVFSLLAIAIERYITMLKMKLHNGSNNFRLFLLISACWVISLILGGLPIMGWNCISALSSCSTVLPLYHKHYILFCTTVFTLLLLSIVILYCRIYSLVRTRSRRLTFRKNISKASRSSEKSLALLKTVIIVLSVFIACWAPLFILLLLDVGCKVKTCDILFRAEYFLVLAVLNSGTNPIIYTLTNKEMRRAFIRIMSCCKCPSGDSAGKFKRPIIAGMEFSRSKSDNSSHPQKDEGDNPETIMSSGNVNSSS

Going from `COc1ccc(-c2nc(-c3ccccc3OC)no2)cc1OC` [5-(3,4-dimethoxyphenyl)-3-(2-methoxyphenyl)-1,2,4-oxadiazole] to `CCOc1ccc(-c2noc(-c3cccnc3)n2)cc1OC` [3-(4-ethoxy-3-methoxy-phenyl)-5-(3-pyridyl)-1,2,4-oxadiazole], the EC50 rises from 0.139 µM to 0.77 µM (5.5-fold).

First: Oc1c(Cl)cc(Cl)cc1Sc1cc(Cl)cc(Cl)c1O
Second: CCc1oc2ccccc2c1C(=O)c1cc(Br)c(O)c(Br)c1
The EC50 of the first is 4.1-fold lower: 1.24 µM for the first, 5.13 µM for the second.

Compared with `c1ccc(CNc2ncnc3ccccc23)cc1` [N-benzylquinazolin-4-amine], `CC(C)C(c1nnnn1Cc1ccccc1)N(Cc1ccco1)Cc1cccs1` (centres undefined) [1-(1-benzyltetrazol-5-yl)-N-(furan-2-ylmethyl)-2-methyl-N-(thiophen-2-ylmethyl)propan-1-amine] is higher in EC50: 4.27 µM for the first, > 95 µM for the second. The first is the more potent here.

First: CCOC(=O)CN(C(=O)CSc1nnc(-c2cccc(OC)c2)o1)c1ccc(F)cc1 [((4-Fluoro-phenyl)-{2-[5-(3-methoxy-phenyl)-[1,3,4]oxadiazol-2-ylsulfanyl]-acetyl}-amino)-acetic acid ethyl ester]
Second: O=C(CSc1nnc(-c2c[nH]c3ccccc23)o1)N1c2ccccc2CCc2ccccc21
The EC50 of the first is 3.5-fold lower: 2.11 µM for the first, 7.48 µM for the second.

Compared with `Cc1cc(C(=O)CSc2nc3ccccc3c(=O)n2C)c(C)n1Cc1ccc2c(c1)OCO2` [2-[2-[1-(1,3-benzodioxol-5-ylmethyl)-2,5-dimethyl-pyrrol-3-yl]-2-oxidanylidene-ethyl]sulfanyl-3-methyl-quinazolin-4-one], `COCCn1c(C)cc(C(=O)CSc2nc3ccccc3c(=O)[nH]2)c1C` [2-[[2-[1-(2-methoxyethyl)-2,5-dimethyl-3-pyrrolyl]-2-oxoethyl]thio]-1H-quinazolin-4-one] is 12-fold higher in EC50: 5.57 µM for the first, 64.4 µM for the second. The first is the more potent here.

`CCOc1ccc(-c2nc(-c3ccccc3C)no2)cc1` [3-(o-tolyl)-5-p-phenetyl-1,2,4-oxadiazole] and `c1ccc(-c2ccc(-c3nc(-c4cccnc4)no3)cc2)cc1` [5-(4-phenylphenyl)-3-(3-pyridinyl)-1,2,4-oxadiazole] are within 1.5-fold of each other in EC50: 1.52 µM for the first, 1.91 µM for the second.

First: COc1ccc(-c2cn3c(C)c(C(=O)N4CCCc5ccccc54)sc3n2)cc1 [3,4-dihydro-2H-quinolin-1-yl-[6-(4-methoxyphenyl)-3-methyl-2-imidazo[2,1-b]thiazolyl]methanone]
Second: COc1ccc(-c2n[nH]cc2-c2ccc3c(c2)OCCO3)c(O)c1 [(6E)-6-[4-(2,3-dihydro-1,4-benzodioxin-6-yl)-1,2-dihydropyrazol-3-ylidene]-3-methoxycyclohexa-2,4-dien-1-one]
The EC50 of the first is higher: > 30 µM for the first, 1.49 µM for the second.

Going from `CC1CCc2nc(NC(=O)CSc3nc4ccccc4o3)sc2C1` (centres undefined) [2-(1,3-benzoxazol-2-ylsulfanyl)-N-(6-methyl-4,5,6,7-tetrahydro-1,3-benzothiazol-2-yl)acetamide] to `CCn1c(SCC(=O)Nc2nc3ccc(C)cc3s2)nc2c(c1=O)SC(C)C2` (centres undefined) [2-[(3-ethyl-4-keto-6-methyl-6,7-dihydrothieno[3,2-d]pyrimidin-2-yl)thio]-N-(6-methyl-1,3-benzothiazol-2-yl)acetamide], the EC50 falls from > 30 µM to 7.72 µM.

First: Cc1ccc2[nH]c3c(N4CCN(Cc5ccc6c(c5)OCO6)CC4)ncnc3c2c1
Second: OC1(c2cccc(C(F)(F)F)c2)CCN(c2ncnc3c2[nH]c2ccc(F)cc23)CC1 [1-(8-fluoranyl-5H-pyrimido[5,4-b]indol-4-yl)-4-[3-(trifluoromethyl)phenyl]piperidin-4-ol]
The EC50 of the first is higher: > 30 µM for the first, 4.41 µM for the second.

Going from `COc1ccccc1-n1nnnc1S(=O)(=O)Cc1ccc(Cl)cc1` [5-(4-chlorobenzyl)sulfonyl-1-(2-methoxyphenyl)tetrazole] to `CC(C)(C)OC(=O)N[C@@H](Cc1ccccc1)c1nnc(S(=O)(=O)Cc2cccc(F)c2)o1` [tert-butyl N-[(1S)-1-[5-[(3-fluorophenyl)methylsulfonyl]-1,3,4-oxadiazol-2-yl]-2-phenylethyl]carbamate], the EC50 rises from 3.77 µM to 9.88 µM (2.6-fold). The first is the more potent here.

Going from `Cc1ccc(-n2c(C)cc(C(=O)COC(=O)c3c(C)noc3C)c2C)cc1` [3,5-dimethyl-4-isoxazolecarboxylic acid [2-[2,5-dimethyl-1-(4-methylphenyl)-3-pyrrolyl]-2-oxoethyl] ester] to `Cc1cc(C(=O)CC#N)c(C)n1-c1ccc(OC(F)F)cc1` [3-[1-[4-(difluoromethoxy)phenyl]-2,5-dimethyl-3-pyrrolyl]-3-oxopropanenitrile], the EC50 rises from 7.98 µM to > 30 µM.

Compared with `O=C(CCN1CCc2ccccc2CC1)c1ccc2c(c1)OCCO2` [1-(2,3-dihydro-1,4-benzodioxin-6-yl)-3-(1,2,4,5-tetrahydro-3-benzazepin-3-yl)-1-propanone;hydrochloride], `O=C(C1CCC1)N1CCc2cc(S(=O)(=O)Nc3ccc4c(c3)OCCO4)ccc21` [1-(cyclobutanecarbonyl)-N-(2,3-dihydro-1,4-benzodioxin-6-yl)-2,3-dihydroindole-5-sulfonamide] is higher in EC50: 12.4 µM for the first, > 30 µM for the second. The first is the more potent here.

Going from `N#Cc1nc(COc2ccc(Cl)cc2Cl)oc1N1CCN(c2ccccc2)CC1` [2-[(2,4-dichlorophenoxy)methyl]-5-(4-phenyl-1-piperazinyl)-4-oxazolecarbonitrile] to `CCc1cc2c(N3CCN(c4ccccc4)CC3)ncnc2s1` [6-ethyl-4-(4-phenyl-1-piperazinyl)thieno[2,3-d]pyrimidine], the EC50 falls from > 10 µM to 8.06 µM. The second is the more potent here.

`Cc1ccc(-c2nc(CSCC(=O)N3CCN(c4ccccn4)CC3)c(C)o2)cc1` [2-[[5-methyl-2-(4-methylphenyl)-1,3-oxazol-4-yl]methylsulfanyl]-1-(4-pyridin-2-ylpiperazin-1-yl)ethanone] and `COC(=O)c1cc(NCc2ccccc2F)ccc1N1CCOCC1` [5-[(2-fluorobenzyl)amino]-2-morpholino-benzoic acid methyl ester] are within 1.5-fold of each other in EC50: 5.99 µM for the first, 5.46 µM for the second.

Going from `CCc1c(C)nc2ncnn2c1NCCc1ccc(OC)cc1` [(6-Ethyl-5-methyl-[1,2,4]triazolo[1,5-a]pyrimidin-7-yl)-[2-(4-methoxy-phenyl)-ethyl]-amine] to `Cc1cccc(OCCCCc2c(C)n[nH]c2C)c1C` [SMR000103133], the EC50 falls from 9.1 µM to 4.86 µM (1.9-fold).

Going from `O=S(=O)(Nc1ccc2c(c1)OCCO2)c1ccc2oc3ccccc3c2c1` [MLS000051884] to `CCOC(=O)c1oc2cc(O)c(CC)cc2c(=O)c1-c1ccc2c(c1)OCCO2` [3-(2,3-dihydro-1,4-benzodioxin-6-yl)-6-ethyl-7-hydroxy-4-keto-chromene-2-carboxylic acid ethyl ester], the EC50 rises from 7.43 µM to > 10 µM. The first is the more potent here.

Compared with `CN(C)S(=O)(=O)c1ccc(C(=O)Nc2nc(-c3cccs3)cs2)cc1` [4-(dimethylsulfamoyl)-N-(4-thiophen-2-yl-1,3-thiazol-2-yl)benzamide], `Cc1nnc(SC(=O)N2c3ccccc3Sc3ccccc32)s1` [10-phenothiazinecarbothioic acid S-(5-methyl-1,3,4-thiadiazol-2-yl) ester] is lower in EC50: > 10 µM for the first, 3.63 µM for the second.

Compared with `COc1ccc2[nH]c(=O)c3c(c2c1)OC(C)(C)C=C3`, `COC(=O)Cc1sc(=O)[nH]c1Nc1ccccc1` [MLS000111966] is higher in EC50: 6.25 µM for the first, > 95 µM for the second. The first is the more potent here.

Compared with `CC(=N)C(C#N)C(=O)CSc1nnc(SCc2ccc(Cl)cc2)s1` (centres undefined) [(E)-3-amino-2-[2-[[5-[(4-chlorobenzyl)thio]-1,3,4-thiadiazol-2-yl]thio]acetyl]but-2-enenitrile], `Cc1ccnc(SCC(=O)Nc2sc3c(c2C#N)CCCC3)n1` [MLS000077260] is 1.8-fold lower in EC50: 9.63 µM for the first, 5.24 µM for the second.

Going from `CCc1c(C)sc(NC(=O)c2cc(-c3ccco3)on2)c1C#N` [MLS000087225] to `CC(=O)Nc1cc(OC(C)=O)c2nonc2c1OC(C)=O` [Acetic acid 7-acetoxy-5-acetylamino-benzo[1,2,5]oxadiazol-4-yl ester], the EC50 rises from 3.67 µM to 5.71 µM (1.6-fold).

Same assay, conditions: inactive by the depositor's call

Going from `COc1ccccc1-c1nc(-c2ccc(Br)cc2)no1` [3-(4-bromophenyl)-5-(2-methoxyphenyl)-1,2,4-oxadiazole] to `COc1ccc(-c2nc(-c3cccc(C(F)(F)F)c3)no2)cc1OC` [5-(3,4-dimethoxyphenyl)-3-[3-(trifluoromethyl)phenyl]-1,2,4-oxadiazole], the EC50 rises from 10.1 µM to 18.8 µM (1.9-fold).

Compared with `CCOC(=O)N1CCC(NC(=O)C2CCCN(Cc3nc(-c4cccc(Cl)c4)oc3C)C2)CC1` (centres undefined) [4-[[1-[[2-(3-chlorophenyl)-5-methyl-oxazol-4-yl]methyl]nipecotoyl]amino]piperidine-1-carboxylic acid ethyl ester], `CCc1ccc(-c2nc(CSCC(=O)N3CCN(c4ccccn4)CC3)c(C)o2)cc1` [1-[({[2-(4-ethylphenyl)-5-methyl-1,3-oxazol-4-yl]methyl}thio)acetyl]-4-pyridin-2-ylpiperazine] is 1.7-fold lower in EC50: 20.1 µM for the first, 11.5 µM for the second. The second is the more potent here.

`CC(C)OCCCNc1ncnc2c1[nH]c1ccccc12` [MLS000041327] and `Cc1ccc2[nH]c3c(NCc4ccco4)ncnc3c2c1` [MLS000040855] are within 1.5-fold of each other in EC50: 13.2 µM for the first, 10.8 µM for the second.

First: O=C(Nc1ccc(C(F)(F)F)cc1)C1CCCN1S(=O)(=O)c1cccc2cccnc12 (centres undefined) [1-(8-quinolinylsulfonyl)-N-[4-(trifluoromethyl)phenyl]-2-pyrrolidinecarboxamide]
Second: Cc1onc(-c2ccccc2Cl)c1C(=O)Oc1cc(N)n(S(=O)(=O)c2ccc(F)cc2)n1 [3-(2-chlorophenyl)-5-methyl-4-isoxazolecarboxylic acid [5-amino-1-(4-fluorophenyl)sulfonyl-3-pyrazolyl] ester]
The EC50 of the first is 2-fold lower: 10.2 µM for the first, 20 µM for the second.

Going from `COc1ccc(CNc2cc(C)nc3ncnn23)c(OC)c1` [(2,4-Dimethoxy-benzyl)-(5-methyl-[1,2,4]triazolo[1,5-a]pyrimidin-7-yl)-amine] to `Clc1ccc(CCNc2[nH]cnc3ncnc2-3)cc1` [SMR000017624], the EC50 falls from 16 µM to 10.6 µM (1.5-fold). The second is the more potent here.

`CCN(CC)S(=O)(=O)c1cccc(S(=O)(=O)c2cccc(S(=O)(=O)N(CC)CC)c2)c1` [3-[3-(diethylsulfamoyl)phenyl]sulfonyl-N,N-diethyl-benzenesulfonamide] and `Cc1noc(C)c1S(=O)(=O)N(CC(=O)Nc1ccc2c(c1)OCCO2)c1ccc(C(C)C)cc1` [MLS000117406] are within 1.5-fold of each other in EC50: 23.4 µM for the first, 15.9 µM for the second.

Compared with `O=C(CSCC(=O)N1CCCCC1)Nc1nc(-c2cccs2)cs1` [2-(2-oxidanylidene-2-piperidin-1-yl-ethyl)sulfanyl-N-(4-thiophen-2-yl-1,3-thiazol-2-yl)ethanamide], `CCN(CC)c1ccc(-n2c(C)c(C(C)=O)c(C(C)=O)c2C)cc1` [1-[1-[4-(diethylamino)phenyl]-4-ethanoyl-2,5-dimethyl-pyrrol-3-yl]ethanone] is 4.3-fold lower in EC50: 45.2 µM for the first, 10.4 µM for the second. The second is the more potent here.
